Experiment [1] deals with genotype A, "Long" strain RSV. Description: RSV-A assay (CPE protection in Hep-2 cells, ATPlite readout). The experiment is classed as cell-based, Human respiratory syncytial virus (HRSV). Conditions: human respiratory syncytial virus, genotype A “Long” strain RSV, MOI 0.1, CPE protection, read-out: Human RSV-A (“Long”). The gist of the method: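 Hep-2 cells (8,000/well) infected with RSV Long strain at MOI 0.1 in the presence of 2-fold compound dilutions in duplicate. After 5 days, cell viability measured by ATPlite luminescence, normalized between virus-only and uninfected cell controls; EC50 reported.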
Background: ATP-based viability assays read luminescence as a measure of living cells.

Experiment [2] relates to recombinant HMPV CAN97-83 containing eGFP (MPV-GFP1). Description: HMPV antiviral assay Method-A (MPV-GFP1 eGFP fluorescence in Vero E6 cells). The experiment is classed as cell-based, Human metapneumovirus (HMPV). Conditions: human metapneumovirus, Vero C1008, 120 h, read-out: HMPV EC50. How it is done: HMPV antiviral activity was evaluated using a recombinant version of HMPV CAN97-83 engineered to contain the coding sequence for enhanced green fluorescence protein (eGFP) in the 3′ end of the virus genome (MPV-GFP1, ViraTree). Vero E6 cells ([…]) were seeded at a density of 12,000 cells/100 μL/well into 96-well cell plates one day prior to the assay. On the day of screening, the cell culture medium was aspirated from the wells and cells were washed twice with serum-free Eagle's Modified Essential Medium (EMEM, ATCC #) containing 1% penicillin-streptomycin (Invitrogen) (SF-EMEM). Cell washes were performed by dispensing 100 μL SF-EMEM per well and immediately aspirating the wash medium from the well. Following the second wash step, serum-free OptiMEM (Invitrogen, Cat No.) (SF-OptiMEM) containing 0.5 μg/mL TPCK-Trypsin (VENDOR) and 1% penicillin-streptomycin was added to the cells at 50 μL/well. Compounds were added into the 96-well plates using a JANUS automated liquid handling system (VENDOR). Compounds were initially diluted 1:50 into an intermediate 96-well plate containing SF-OptiMEM prior to transfer to the assay plate (25 μL/well). Each of the test compounds were tested in duplicate wells at final concentrations starting from 8 μM or 2 μM using ½ stepwise dilutions for a total of 8 points. Virus infection was performed by preparing a working stock of MPV-GFP1 at a multiplicity of infection (MOI) equal to 0.05/25 μL and aliquoting 25 μL of virus inoculum to the compound and positive control wells. SF-OptiMEM was added (25 μL/well) to the appropriate wells to serve as a virus-free negative control for the assay. The final DMSO concentration of all wells is 0.5%. Plates were incubated at 32° C., 5% CO2 for 5 days.
After 5 days incubation, eGFP fluorescence intensity was measured at (X) […] wavelength using a Spectramax i3× plate reader (VENDOR). Percent viral inhibition was calculated using the following equation: y=[…]
Where XQ is the fluorescence intensity measured in a well containing recombinant MPV-GFP1-infected, compound-treated cells and XP is the average fluorescence intensity measured in the wells containing untreated cells infected with recombinant virus. EC50 values were then calculated by non-linear regression using a four parameter curve logistic equation. The curve fit model employed was XLFit Dose Response One Site Model 200: y=(A+(B/(1+((x/C)^D))))
Where A is the minimum y value, B is the maximum y value, C is the log EC50 value, and D is the slope factor. […] EC50 ranges are as follows: A<0.5 μM; B>0.5 μM.

Structures are written as SMILES.

For `COc1cc(C(=O)NC[C@](O)(c2cc3c(c(-c4ccc(F)cc4)n2)OC[C@]3(C)C(N)=O)C(F)(F)F)cc2cn(C3CCC3)nc12` [Example 323], the EC50 in experiment [1] is below 200 nM; in experiment [2], above 500 nM.
For `COc1cc(C(=O)NC[C@](O)(c2cc3c(c(-c4ccc(F)c(Cl)c4)n2)OC[C@]3(C)C(N)=O)C(F)(F)F)cc2cn(C3CCC3)nc12` [Example 324], the EC50 in experiment [1] was below 200 nM; in experiment [2], below 500 nM.
Consider `C[C@]1(C(N)=O)COc2c1cc([C@@](O)(CNC(=O)c1cc(Cl)c3[nH]ccc3c1)C(F)(F)F)nc2-c1ccc(F)cc1` [Example 199], for which the EC50 in experiment [1] is below 200 nM; in experiment [2], above 500 nM.
As for `COc1cc(C(=O)NC[C@](O)(c2cc3c(c(-c4ccc(F)cc4)n2)OC[C@]3(C)C(N)=O)C(F)(F)F)cc2cn(C3CC3)nc12` [Example 24], the EC50 in experiment [1] is below 200 nM; in experiment [2], below 500 nM.
As to `C[C@]1(C(N)=O)COc2c1cc([C@@](O)(CNC(=O)c1ccc3nc(C(F)F)sc3c1)C(F)(F)F)nc2-c1ccc(F)cc1` [Example 141], the values for the EC50 in experiment [1] and in experiment [2] were below 200 nM and above 500 nM, respectively.
For the compound `COc1cc(C(=O)NC[C@](O)(c2cc3c(c(-c4ccc(F)c(Cl)c4)n2)OC[C@]3(C)C(N)=O)C(F)(F)F)cc2sc(C3CC3)nc12` [Example 19], the EC50 in experiment [1] is below 200 nM; in experiment [2], below 500 nM.
With `C[C@]1(C(N)=O)COc2c1cc([C@@](O)(CNC(=O)c1cc(Cl)c3ncc(C(F)(F)F)cc3c1)C(F)(F)F)nc2-c1ccc(F)cc1` [Example 73], the EC50 was below 200 nM in experiment [1] and below 500 nM in experiment [2].
In the case of `CCn1cc2cc(C(=O)NC[C@](O)(c3cc4c(c(-c5ccc(F)cc5)n3)OC[C@]4(C)C(N)=O)C(F)(F)F)ccc2n1` [Example 168], the EC50 in experiment [1] is below 200 nM; in experiment [2], below 500 nM.
For the compound `Cc1nc2c(OC3CC3)cc(C(=O)NC[C@](O)(c3cc4c(c(-c5ccc(F)cc5)n3)OC[C@]4(C)C(N)=O)C(F)(F)F)cc2s1` [Example 80], the figures for the EC50 in experiment [1] and in experiment [2] were below 200 nM and below 500 nM, respectively.
In the same order, the values of `Cc1cc2cc(C(=O)NC[C@](O)(c3cc4c(c(-c5ccc(F)cc5)n3)OC[C@]4(C)C(N)=O)C(F)(F)F)cc(OC(F)(F)F)c2nc1C` [Example 179] are below 200 nM and above 500 nM.
Consider `C[C@]1(C(N)=O)COc2c1cc([C@@](O)(CNC(=O)c1cc(F)c3nn(C4CC4)cc3c1)C(F)(F)F)nc2-c1ccc(F)c(Cl)c1` [Example 29], for which the EC50 in experiment [1] was below 200 nM; in experiment [2], below 500 nM.
Turning to `Cc1cnc2c(NC(=O)N3CCC3)cc(C(=O)NC[C@](O)(c3cc4c(c(-c5ccc(F)cc5)n3)OC[C@]4(C)C(N)=O)C(F)(F)F)cc2c1` [Example 221], the figures for the EC50 in experiment [1] and in experiment [2] were below 200 nM and above 500 nM, respectively.
`CCc1nc2c(OC)cc(C(=O)NC[C@](O)(c3cc4c(c(-c5ccc(F)c(Cl)c5)n3)OC[C@]4(C)C(N)=O)C(F)(F)F)cc2s1` [Example 20]: the EC50 in experiment [1] is below 200 nM; in experiment [2], below 500 nM.
As to `C[C@]1(C(N)=O)COc2c1cc([C@@](O)(CNC(=O)c1cc(F)c3nn(C(F)F)cc3c1)C(F)(F)F)nc2-c1ccc(F)c(Cl)c1` [Example 45], the EC50 is below 200 nM in experiment [1] and below 500 nM in experiment [2].
Turning to `C[C@]1(C(N)=O)COc2c1cc([C@@](O)(CNC(=O)c1cc(NC(=O)NC3CC3)c3ncc(Cl)cc3c1)C(F)(F)F)nc2-c1ccc(F)cc1` [Example 218], the figures for the EC50 in experiment [1] and in experiment [2] were below 200 nM and below 500 nM, respectively.
For `COc1cc(C(=O)NC[C@](O)(c2cc3c(c(-c4ccc(F)cc4)n2)OC[C@]3(C)C(N)=O)C(F)(F)F)cc2sc(C3CC3)nc12` [Example 17] the same measures were below 200 nM and below 500 nM.
For `C[C@]1(C(N)=O)COc2c1cc([C@@](O)(CNC(=O)c1ccc3nc(C4CC4)cn3c1)C(F)(F)F)nc2-c1ccc(F)c(Cl)c1` [Example 60] the same measures were below 200 nM and below 500 nM.
`C[C@]1(C(N)=O)COc2c1cc([C@@](O)(CNC(=O)c1cc(F)c3nc(N)sc3c1)C(F)(F)F)nc2-c1ccc(F)c(Cl)c1` [Example 12]: the EC50 was below 200 nM in experiment [1] and below 500 nM in experiment [2].
In the same order, the values of `C[C@]1(C(N)=O)COc2c1cc([C@@](O)(CNC(=O)c1ccc3nc(C(F)(F)F)cn3c1)C(F)(F)F)nc2-c1ccc(F)cc1` [Example 54] are below 200 nM and above 500 nM.
In the same order, the values of `C[C@H](N)C(=O)Nc1nc2ccc(C(=O)NC[C@](O)(c3cc4c(c(-c5ccc(F)cc5)n3)OC[C@]4(C)C(N)=O)C(F)(F)F)cc2s1` [Example 153] are below 200 nM and above 500 nM.
For `CC(C)n1cc2cc(C(=O)NC[C@](O)(c3cc4c(c(-c5ccc(F)cc5)n3)OC[C@]4(C)C(N)=O)C(F)(F)F)ccc2n1` [Example 169], the values for the EC50 in experiment [1] and in experiment [2] were below 200 nM and above 500 nM, respectively.
In the same order, the values of `C[C@]1(C(N)=O)COc2c1cc([C@@](O)(CNC(=O)c1cc(F)c3nc(C4CC4)cn3c1)C(F)(F)F)nc2-c1ccc(F)c(Cl)c1` [Example 58] are below 200 nM and below 500 nM.
Take `COc1cc(C(=O)NC[C@](O)(c2cc3c(c(-c4ccc(F)cc4)n2)OC[C@]3(C)C(N)=O)C(F)(F)F)cc2cc(C3CC3)c(CO)nc12` [Example 166]: the EC50 in experiment [1] is below 200 nM; in experiment [2], above 500 nM.
In the same order, the values of `Cc1cc2cc(C(=O)NC[C@](O)(c3cc4c(c(-c5ccc(F)cc5)n3)OC[C@]4(C)C(N)=O)C(F)(F)F)cc(Cl)c2nc1C` [Example 177] are below 200 nM and below 500 nM.
In the same order, the values of `C[C@]1(C(N)=O)COc2c1cc([C@@](O)(CNC(=O)c1cc(F)c3nc(CF)cn3c1)C(F)(F)F)nc2-c1ccc(F)cc1` [Example 63] are below 200 nM and above 500 nM.
For `COc1cc(C(=O)NC[C@](O)(c2cc3c(c(-c4ccc(F)cc4)n2)OC[C@]3(C)C(N)=O)C(F)(F)F)cc2cc(C(F)(F)F)c(C)nc12` [Example 83] the same measures were below 200 nM and below 500 nM.
In the case of `COc1cc(C(=O)NC[C@](O)(c2cc3c(c(-c4ccc(F)cc4)n2)OC[C@]3(C)C(N)=O)C(F)(F)F)cc2cc(C3CC3)c(C)nc12` [Example 78], the EC50 in experiment [1] was below 200 nM; in experiment [2], above 500 nM.
For the compound `COc1cc(C(=O)NC[C@](O)(c2cc3c(c(-c4ccc(F)cc4)n2)OC[C@@]3(C(N)=O)C2CC2)C(F)(F)F)cc2cc(C(F)(F)F)cnc12` [Example 265], the EC50 in experiment [1] was below 200 nM; in experiment [2], below 500 nM.
With `C[C@]1(C(N)=O)COc2c1cc([C@@](O)(CNC(=O)c1ccc3[nH]c(=O)sc3c1)C(F)(F)F)nc2-c1ccc(F)cc1` [Example 129], the EC50 in experiment [1] was below 200 nM; in experiment [2], above 500 nM.
In the same order, the values of `[2H]C([2H])([2H])c1cc(C(=O)NC[C@](O)(c2cc3c(c(-c4ccc(F)cc4)n2)OC[C@]3(C)C(N)=O)C(F)(F)F)cc2cn[nH]c12` [Example 128] are below 200 nM and below 500 nM.
As for `C[C@]1(C(N)=O)COc2c1cc([C@@](O)(CNC(=O)c1ccc3nc(C4CC4)cn3c1)C1CC1)nc2-c1ccc(F)cc1` [Example 53], the EC50 was below 200 nM in experiment [1] and below 500 nM in experiment [2].
With `NC(=O)[C@@]1(C2CC2)COc2c1cc([C@@](O)(CNC(=O)c1cc(F)c3nc(N)sc3c1)C(F)(F)F)nc2-c1ccc(F)cc1` [Example 263], the EC50 in experiment [1] was below 200 nM; in experiment [2], below 500 nM.
For `CCc1nc2ccc(C(=O)NC[C@](O)(c3cc4c(c(-c5ccc(F)cc5)n3)OC[C@]4(C)C(N)=O)C(F)(F)F)cc2s1` [Example 11] the same measures were below 200 nM and above 500 nM.
For `COc1cc(C(=O)NC[C@](O)(c2cc3c(c(-c4ccc(F)cc4)n2)OC[C@]3(C)C(N)=O)C(F)(F)F)ccc1OC[C@H](O)C(F)(F)F` [Example 132] the same measures were below 200 nM and above 500 nM.
As to `COc1cc(C(=O)NC[C@](O)(c2cc3c(c(-c4ccc(F)cc4)n2)OC[C@]3(C)C(N)=O)C(F)(F)F)cn2cc(C(F)F)nc12` [Example 64], the values for the EC50 in experiment [1] and in experiment [2] were below 200 nM and above 500 nM, respectively.

The record behind these values is patent US12612412B2, “Antiviral heterocyclic compounds” (Enanta Pharmaceuticals, Inc., priority 2021, dated 2026).
